Results published in PubChem BioAssay AID328 (DTP/NCI, 2004).
Several values for one entry are separate records, joined by “and”; a condition that tells them apart may be missing. Identical values can stand only once. Toxic doses and inconclusive results are not listed.

System: BDF1 mice, P388 leukemia ip, median survival T/C
Test: NCI In Vivo Anticancer Drug Screen. Data for tumor model P388 Leukemia (intraperitoneal) in B6D2F1 (BDF1) mice
Conditions: endpoint: median survival time, higher = longer survival
In short: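 Reported as T/C, where T is the survival measurement in dosed animals and C the same measurement in vehicle controls.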

[1] = dose: 100.0 mg/kg/injection, schedule: Q01DX009 (ip), vehicle: Klucel (hydroxypropylcellulose) (HPC)
[2] = dose: 50.0 mg/kg/injection, schedule: Q01DX009 (ip), vehicle: saline with Tween-80
[3] = dose: 100.0 mg/kg/injection, schedule: Q01DX009 (ip), vehicle: saline with Tween-80
[4] = dose: 200.0 mg/kg/injection, schedule: Q01DX009 (ip), vehicle: saline with Tween-80
[5] = dose: 100.0 mg/kg/injection, schedule: Q04DX003 (ip), vehicle: Klucel (hydroxypropylcellulose) (HPC)
[6] = dose: 200.0 mg/kg/injection, schedule: Q04DX003 (ip), vehicle: Klucel (hydroxypropylcellulose) (HPC)
[7] = dose: 200.0 mg/kg/injection, schedule: Q01DX009 (ip), vehicle: Klucel (hydroxypropylcellulose) (HPC)
[8] = dose: 400.0 mg/kg/injection, schedule: Q01DX009 (ip), vehicle: Klucel (hydroxypropylcellulose) (HPC)
[9] = dose: 400.0 mg/kg/injection, schedule: Q04DX003 (ip), vehicle: Klucel (hydroxypropylcellulose) (HPC)
[10] = dose: 400.0 mg/kg/injection, schedule: Q04DX003 (ip), vehicle: saline with Tween-80
[11] = dose: 12.5 mg/kg/injection, schedule: Q01DX009 (ip), vehicle: saline with Tween-80
[12] = dose: 25.0 mg/kg/injection, schedule: Q01DX009 (ip), vehicle: saline with Tween-80
[13] = dose: 100.0 mg/kg/injection, schedule: Q04DX003 (ip), vehicle: saline with Tween-80

Cc1nc(N(C)C)c2cnn(-c3ccccc3)c2n1
T/C (dose: 25.0 mg/kg/injection, schedule: Q01DX009 (ip), vehicle: Klucel (hydroxypropylcellulose) (HPC)): 105 % of control
T/C (dose: 50.0 mg/kg/injection, schedule: Q01DX009 (ip), vehicle: Klucel (hydroxypropylcellulose) (HPC)): 105 % of control
T/C [1]: 105 % of control

CC1CN1P(=S)(N1CCCC1)N1CC1C (configuration not stated)
T/C (dose: 17.8 mg/kg/injection, schedule: Q01DX009 (ip), vehicle: saline with Tween-80): 112 % of control
T/C (dose: 26.6 mg/kg/injection, schedule: Q01DX009 (ip), vehicle: saline with Tween-80): 114 % of control
T/C (dose: 40.0 mg/kg/injection, schedule: Q01DX009 (ip), vehicle: saline with Tween-80): 168 % of control
T/C [2]: 150 % of control
T/C (dose: 60.0 mg/kg/injection, schedule: Q01DX009 (ip), vehicle: saline with Tween-80): 214 % of control
T/C [3]: 170 % of control

CCc1ccc2[nH]nc(CCC(=O)O)c(=O)c2c1
T/C [2]: 117 % of control
T/C [3]: 108 % of control
T/C [4]: 92 % of control

Cc1ccnc(NS(=O)(=O)c2ccc(N=Nc3nc4[nH]c(N)nc(=S)c4[nH]3)cc2)n1
T/C (dose: 1.56 mg/kg/injection, schedule: Q01DX009 (ip), vehicle: Klucel (hydroxypropylcellulose) (HPC)): 151 % of control
T/C (dose: 3.12 mg/kg/injection, schedule: Q01DX009 (ip), vehicle: Klucel (hydroxypropylcellulose) (HPC)): 112 % of control
T/C (dose: 6.25 mg/kg/injection, schedule: Q01DX009 (ip), vehicle: Klucel (hydroxypropylcellulose) (HPC)): 108 % of control

N=c1ccn(C(=O)C2=Cc3ccccc3OC2)cc1
T/C (dose: 1.25 mg/kg/injection, schedule: Q01DX009 (ip), vehicle: saline with Tween-80): 88 % of control and 112 % of control
T/C (dose: 2.5 mg/kg/injection, schedule: Q01DX009 (ip), vehicle: saline with Tween-80): 96 % of control and 100 % of control
T/C (dose: 5.0 mg/kg/injection, schedule: Q01DX009 (ip), vehicle: saline with Tween-80): 92 % of control and 100 % of control and 112 % of control
T/C (dose: 5.0 mg/kg/injection, schedule: Q04DX003 (ip), vehicle: saline with Tween-80): 118 % of control
T/C (dose: 10.0 mg/kg/injection, schedule: Q04DX003 (ip), vehicle: saline with Tween-80): 95 % of control
T/C (dose: 20.0 mg/kg/injection, schedule: Q04DX003 (ip), vehicle: saline with Tween-80): 90 % of control

NC(=O)N/N=C(\CF)C(=O)O
T/C (dose: 6.0 mg/kg/injection, schedule: Q01DX009 (ip), vehicle: Klucel (hydroxypropylcellulose) (HPC)): 105 % of control
T/C (dose: 12.0 mg/kg/injection, schedule: Q01DX009 (ip), vehicle: Klucel (hydroxypropylcellulose) (HPC)): 105 % of control
T/C (dose: 24.0 mg/kg/injection, schedule: Q01DX009 (ip), vehicle: Klucel (hydroxypropylcellulose) (HPC)): 115 % of control
T/C (dose: 48.0 mg/kg/injection, schedule: Q01DX009 (ip), vehicle: Klucel (hydroxypropylcellulose) (HPC)): 105 % of control

[Cl][Eu]([Cl])[Cl]
T/C (dose: 6.25 mg/kg/injection, schedule: Q01DX009 (ip), vehicle: saline): 98 % of control
T/C (dose: 12.5 mg/kg/injection, schedule: Q01DX009 (ip), vehicle: saline): 100 % of control
T/C (dose: 25.0 mg/kg/injection, schedule: Q01DX009 (ip), vehicle: saline): 92 % of control
T/C (dose: 50.0 mg/kg/injection, schedule: Q01DX009 (ip), vehicle: saline): 96 % of control

CC12CCOC(=O)/C=C/C=C/C(=O)OC3CC4OC5C6OC6(C)CCC5(COC(=O)C1O2)C3(C)C41CO1 (configuration not stated)
T/C (dose: 2.5 mg/kg/injection, schedule: Q01DX009 (ip), vehicle: saline + alcohol): 154 % of control
T/C (dose: 10.0 mg/kg/injection, schedule: Q01DX009 (ip), vehicle: saline + alcohol): 157 % of control

O=S(=O)(O)c1cc(O)c2cc(Nc3ccccc3)ccc2c1
T/C (dose: 50.0 mg/kg/injection, schedule: Q04DX003 (ip), vehicle: saline): 104 % of control
T/C (dose: 100.0 mg/kg/injection, schedule: Q04DX003 (ip), vehicle: saline): 113 % of control
T/C (dose: 200.0 mg/kg/injection, schedule: Q04DX003 (ip), vehicle: saline): 109 % of control

CCCCOCN(COCCCC)C12CC3CC(CC(C3)C1)C2
T/C [2]: 120 % of control

NC(=O)c1ccc(C(F)(F)F)cc1O
T/C [5]: 90 % of control
T/C [6]: 90 % of control

C=CCN(CC=C)c1ccccc1
T/C [1]: 104 % of control
T/C [5]: 100 % of control
T/C [7]: 109 % of control
T/C [6]: 100 % of control
T/C [8]: 122 % of control
T/C [9]: 112 % of control

CN(Cc1cnc2nc(N)nc(N)c2n1)c1c(Cl)cc(C(=O)NC(CCC(=O)O)C(=O)O)cc1Cl (configuration not stated)
T/C (dose: 17.5 mg/kg/injection, schedule: Q01DX009 (ip), vehicle: saline): 213 % of control
T/C (dose: 35.0 mg/kg/injection, schedule: Q01DX009 (ip), vehicle: saline): 270 % of control
T/C (dose: 70.0 mg/kg/injection, schedule: Q01DX009 (ip), vehicle: saline): 270 % of control
T/C [3]: 95 % of control
T/C [4]: 86 % of control
T/C (dose: 264.0 mg/kg/injection, schedule: Q04DX003 (ip), vehicle: saline with Tween-80): 175 % of control
T/C [10]: 241 % of control
T/C (dose: 600.0 mg/kg/injection, schedule: Q04DX003 (ip), vehicle: saline with Tween-80): 250 % of control

O=[N+]([O-])c1ccc(/C=N\Nc2ccc([N+](=O)[O-])cn2)cc1
T/C [11]: 110 % of control
T/C [12]: 120 % of control
T/C [2]: 120 % of control
T/C [3]: 90 % of control
T/C (dose: 100.0 mg/kg/injection, schedule: Q04DX003 (ip), vehicle: saline sonified): 100 % of control
T/C [4]: 90 % of control
T/C (dose: 200.0 mg/kg/injection, schedule: Q04DX003 (ip), vehicle: saline sonified): 110 % of control
T/C (dose: 400.0 mg/kg/injection, schedule: Q04DX003 (ip), vehicle: saline sonified): 120 % of control

CC(C)CN(CC(C)C)C(=O)c1ccc(Cl)c(Cl)c1
T/C [12]: 91 % of control
T/C [2]: 103 % of control
T/C [3]: 107 % of control
T/C [4]: 94 % of control

CS(=O)(=O)OCCN(CCOS(C)(=O)=O)c1ccc(C(=O)O)cc1
T/C (dose: 33.0 mg/kg/injection, schedule: Q01DX009 (ip), vehicle: saline with Tween-80): 195 % of control
T/C [2]: 200 % of control
T/C (dose: 75.0 mg/kg/injection, schedule: Q01DX009 (ip), vehicle: saline with Tween-80): 236 % of control
T/C (dose: 300.0 mg/kg/injection, schedule: Q04DX003 (ip), vehicle: saline with Tween-80): 113 % of control

O=C(Nc1cccc(C2=NCCN2)c1)c1ccc(C(=O)Nc2cccc(C3=NCCN3)c2)c(Cl)c1
T/C (dose: 1.0 mg/kg/injection, schedule: Q01DX010 (ip), vehicle: water): 100 % of control
T/C (dose: 2.0 mg/kg/injection, schedule: Q01DX010 (ip), vehicle: water): 100 % of control
T/C (dose: 4.0 mg/kg/injection, schedule: Q01DX010 (ip), vehicle: water): 100 % of control

Cc1ccc2c(c1)=N/C(=N/c1[nH]c(O)c3ccccc13)N=2
T/C (dose: 6.25 mg/kg/injection, schedule: Q01DX009 (ip), vehicle: saline with Tween-80): 108 % of control
T/C [11]: 99 % of control
T/C [12]: 108 % of control

COc1ccc(N2c3ccccc3-c3cc[nH]c(=O)c3[C@H]2O)cc1OC
T/C (dose: 37.5 mg/kg/injection, schedule: Q01DX009 (ip), vehicle: Klucel (hydroxypropylcellulose) (HPC)): 119 % of control
T/C (dose: 75.0 mg/kg/injection, schedule: Q01DX006 (ip), vehicle: Klucel (hydroxypropylcellulose) (HPC)): 114 % of control
T/C (dose: 75.0 mg/kg/injection, schedule: Q01DX009 (ip), vehicle: Klucel (hydroxypropylcellulose) (HPC)): 106 % of control
T/C (dose: 150.0 mg/kg/injection, schedule: Q01DX009 (ip), vehicle: Klucel (hydroxypropylcellulose) (HPC)): 163 % of control

CCCCCCC(=O)/C=C/c1cccc(OC)c1
T/C [2]: 90 % of control
T/C [3]: 105 % of control
T/C [4]: 105 % of control

O=c1c2ccccc2[nH]c2ccccc12
T/C (dose: 50.0 mg/kg/injection, schedule: Q04DX003 (ip), vehicle: saline with Tween-80): 105 % of control
T/C [13]: 99 % of control
T/C (dose: 200.0 mg/kg/injection, schedule: Q04DX003 (ip), vehicle: saline with Tween-80): 99 % of control
T/C [10]: 96 % of control

O=[N+]([O-])c1cccc(OCCOc2ccc(S(=O)(=O)F)cc2)c1
T/C [13]: 100 % of control
T/C [10]: 100 % of control

O=C1c2ccccc2C(=O)N1CNc1ccc(Cc2ccc(NCN3C(=O)c4ccccc4C3=O)c(Cl)c2)cc1Cl
T/C [1]: 100 % of control
T/C [5]: 100 % of control
T/C [7]: 100 % of control
T/C [6]: 95 % of control
T/C [8]: 90 % of control
T/C [9]: 95 % of control
